Test results as given in ChEMBL document CHEMBL5390286, “Discovery of Ingenane Diterpenoids from Euphorbia hylonoma as Antiadipogenic Agents” (J Nat Prod, 2023).
Activity calls are given as the source filed them. No cut-off for these calls is given here.

What was measured:
3T3-L1 [1] = test: Anti-adipogenic efficacy in mouse 3T3-L1 cells assessed as inhibition of TG level by Oil Red O staining based light microscopic analysis; type: functional, cell-based
3T3-L1 [2] = test: Anti-adipogenic efficacy in mouse 3T3-L1 cells assessed as inhibition of TG level at 1 uM by Oil Red O staining based light microscopy analysis; type: functional, cell-based
3T3-L1 [3] = test: Anti-adipogenic efficacy in mouse 3T3-L1 cells assessed as reduction in C/EBPbeta protein level by Western blot analysis; type: functional, cell-based; conditions: dose 0.1-10 µM
3T3-L1 [4] = test: Anti-adipogenic efficacy in mouse 3T3-L1 cells assessed as reduction in FAS mRNA level by RT-qPCR analysis; type: functional, cell-based; conditions: dose 0.1-10 µM
3T3-L1 [5] = test: Anti-adipogenic efficacy in mouse 3T3-L1 cells assessed as increase in p-ACC level at 0.1 to 10 uM by Western blot analysis; type: functional, cell-based; conditions: dose 0.1-10 µM
3T3-L1 [6] = test: Anti-adipogenic efficacy in mouse 3T3-L1 cells assessed as increase in p-AMPK level at 0.1 to 10 uM by Western blot analysis; type: functional, cell-based; conditions: dose 0.1-10 µM
3T3-L1 [7] = test: Anti-adipogenic efficacy in mouse 3T3-L1 cells assessed as reduction in PPARgamma protein level by Western blot analysis; type: functional, cell-based; conditions: dose 0.1-10 µM
3T3-L1 [8] = test: Anti-adipogenic efficacy in mouse 3T3-L1 cells assessed as reduction in SCD-1 protein level by Western blot analysis; type: functional, cell-based; conditions: dose 0.1-10 µM
3T3-L1 [9] = test: Anti-adipogenic efficacy in mouse 3T3-L1 cells assessed as reduction in SCD-1 mRNA level by RT-qPCR analysis; type: functional, cell-based; conditions: dose 0.1-10 µM
3T3-L1 [10] = test: Cytotoxicity against mouse 3T3-L1 cells assessed as reduction in cell viability at 20 uM by CCK-8 assay; type: toxicity, cell-based; conditions: 3t3-l1, 20 µM
3T3-L1 [11] = test: Anti-adipogenic efficacy in mouse 3T3-L1 cells assessed as reduction in PPARgamma mRNA level by RT-qPCR analysis; type: functional, cell-based; conditions: dose 0.1-10 µM
3T3-L1 [12] = test: Anti-adipogenic efficacy in mouse 3T3-L1 cells assessed as reduction in FAS protein level by Western blot analysis; type: functional, cell-based; conditions: dose 0.1-10 µM
3T3-L1 [13] = test: Anti-adipogenic efficacy in mouse 3T3-L1 cells assessed as reduction in C/EBPbeta mRNA level by RT-qPCR analysis; type: functional, cell-based; conditions: dose 0.1-10 µM

| Compound | EC50 (3T3-L1 [1]) | Activity (3T3-L1 [2]) | Activity (3T3-L1 [3]) | Activity (3T3-L1 [4]) | Activity (3T3-L1 [5]) | Activity (3T3-L1 [6]) | Activity (3T3-L1 [7]) | Activity (3T3-L1 [8]) | Activity (3T3-L1 [9]) | Activity (3T3-L1 [10]) | Activity (3T3-L1 [11]) | Activity (3T3-L1 [12]) | Activity (3T3-L1 [13]) |
| --- | --- | --- | --- | --- | --- | --- | --- | --- | --- | --- | --- | --- | --- |
| C=C1C[C@]2(O)C(=O)C(C)(C)C[C@H]2C2=CC(=O)[C@]3(C[C@H](C)[C@H](OC(=O)c4ccccc4)[C@@H]3[C@H]1OC(=O)c1ccccc1)O2 | 200 nM |  |  |  |  |  |  |  |  |  |  |  |  |
| C=C1C[C@]23O[C@@](O)([C@@]4(O)C[C@H](C)[C@H](OC(=O)c5ccccc5)[C@@H]4[C@H]1OC(=O)c1ccccc1)[C@]1(C)O[C@](C)(CC2=O)C[C@H]31 | 360 nM |  |  |  |  |  |  |  |  |  |  |  |  |
| CC1=C[C@@H]2C(=O)[C@]3(C=C(C)[C@H](OC(=O)C(C)C(C)C)[C@@]3(O)[C@@H]1O)[C@H](C)C[C@@H]1[C@H]2C1(C)C (stereo not given in full) | 600 nM | Active | Dose-Dependent Effect | Dose-Dependent Effect | Active | Active | Dose-Dependent Effect | Dose-Dependent Effect | Dose-Dependent Effect | Non-Toxic | Dose-Dependent Effect | Dose-Dependent Effect | Dose-Dependent Effect |
